Source: paper PMC6270455, “Antibacterial and Herbicidal Activity of Ring-Substituted 3-Hydroxynaphthalene-2-carboxanilides” (Molecules, 2013)
pIC50: −log10 of the molar value. In brackets after ≈: the same amount, converted by molar mass. Several values for one entry are separate records, joined by “and”; a condition that tells them apart may be missing. Equal entries are not always repeated.

How the values were obtained:
[1] = tested on: methicillin-resistant S. aureus SA 630; assay: In vitro antibacterial susceptibility testing, broth dilution micro-method; type: cell-based, Staphylococcus aureus; settings: clinical isolate MRSA SA 630, MH broth, 24 h, 37 °C; for MIC: Staphylococcus aureus
Procedure: (§1) The synthesized compounds were evaluated for in vitro antibacterial activity against representatives of multidrug-resistant bacteria, clinical isolates of methicillin-resistant Staphylococcus aureus (MRSA) 63718, SA 630 and SA 3202 that were obtained from the National Institute of Public Health, Prague, Czech Republic. Staphylococcus aureus ATCC 29213 was used as a reference and quality control strain. Ampicillin (Sigma-Aldrich) was used as the standard. Prior to testing, each strain was passaged onto nutrient agar (Oxoid, Hampshire, UK) with 5% of bovine blood, and bacterial inocula were prepared by suspending a small portion of bacterial colony in sterile phosphate buffered saline (pH 7.2–7.3). The cell density was adjusted to 0.5 McFarland units using a densitometer (Densi-La-Meter, LIAP, Riga, Latvia). The final inoculum was made by 1:20 dilution of the suspension with the Mueller-Hinton broth (MH broth). […] The broth dilution micro-method modified according to NCCLS guidelines in MH broth was used to determine the minimum inhibitory concentration (MIC). Drug-free controls, sterility controls and controls consisted of MH broth and DMSO alone were included. The determination of results was performed visually after 24 h of static incubation in the darkness at 37 °C in an aerobic atmosphere. The MICs were defined as the lowest concentration of the compound at which no visible bacterial growth was observed.

[2] = tested on: methicillin-resistant S. aureus SA 3202; assay: as above; type: cell-based, Staphylococcus aureus; settings: clinical isolate MRSA SA 3202, MH broth, 24 h, 37 °C; for MIC: Staphylococcus aureus
Procedure: as §1

[3] = tested on: methicillin-resistant Staphylococcus aureus (MRSA) 63718; assay: as above; type: cell-based; settings: clinical isolate MRSA 63718, MH broth, 24 h, 37 °C; for MIC: Staphylococcus aureus
Procedure: as §1

[4] = tested on: Staphylococcus aureus ATCC 29213; assay: as above; type: cell-based; settings: 24 h, 37 °C; for MIC: ATCC29213, MH broth
Procedure: as §1

[5] = tested on: M. kansasii DSM 44162; assay: In vitro antimycobacterial evaluation, broth dilution micro-method; type: cell-based; settings: Mycobacterium kansasii, DSM44162, 168 h, Middlebrook 7H9, 7 days, 37 °C
[6] = Lipophilicity determination by RP-HPLC (capacity factor, log k); type: physicochemical; settings: RP-HPLC capacity factor logarithm; C18 column, MeOH 60% / H2O 40%, 40 °C
Procedure: Lipophilicity of the studied compounds was determined by RP-HPLC as capacity factor logarithm (log k) and calculated as log P using ACD/Percepta software. […] It is important to note that lipophilicity also has a great impact on target and off-target interactions, as mentioned below.
A HPLC system Agilent 1200 equipped with DAD detector (Agilent, Santa Clara, CA, USA) was used. A chromatographic column Symmetry® C18 5 μm, 4.6 × 250 mm, Part No. WAT054275, (Waters Corp., Milford, MA, USA) was used. The HPLC separation process was monitored and evaluated by EZChrom Elite software ver. 3.3.2 (Agilent). Isocratic elution by a mixture of MeOH p.a. (60%) and H2O-HPLC Mili-Q grade (40%) as a mobile phase was used. The total flow of the column was 1.0 mL/min, injection 20 μL, column temperature 40 °C and sample temperature 10 °C. The detection wavelength 210 nm was chosen. The KI methanolic solution was used for the dead time (tD) determination. Retention times (tR) were measured in minutes. The capacity factors k were calculated according to formula k = (tR − tD)/tD, where tR is the retention time of the solute, whereas tD denotes the dead time obtained using an unretained analyte. Log k, calculated from the capacity factor k, is used as the lipophilicity index converted to log P scale.

[7] = tested on: Mycobacterium marinum CAMP 5644; assay: In vitro antimycobacterial evaluation, broth dilution micro-method; type: cell-based; settings: CAMP5644, 504 h, Middlebrook 7H9, 21 days, 28 °C
[8] = tested on: photosynthetic electron transport (PET) in spinach chloroplasts; assay: Inhibition of photosynthetic electron transport (PET) in spinach chloroplasts (DCPIP photoreduction); type: biochemical, Spinacia oleracea L.
Procedure: Chloroplasts were prepared from spinach (Spinacia oleracea L.) according to Masarovicova and Kralova. The inhibition of photosynthetic electron transport (PET) in spinach chloroplasts was determined spectrophotometrically (Genesys 6, Thermo Scientific), using an artificial electron acceptor 2,6-dichlorophenol-indophenol (DCIPP) according to Kralova et al., and the rate of photosynthetic electron transport was monitored as a photoreduction of DCPIP. The measurements were carried out in phosphate buffer (0.02 mol/L, pH 7.2) containing sucrose (0.4 mol/L), MgCl2 (0.005 mol/L) and NaCl (0.015 mol/L). The chlorophyll content was 30 mg/L in these experiments and the samples were irradiated (~100 W/m^2 with 10 cm distance) with a halogen lamp (250 W) using a 4 cm water filter to prevent warming of the samples (suspension temperature 22 °C). The studied compounds were dissolved in DMSO due to their limited water solubility. […] The inhibitory efficiency of the studied compounds was expressed by IC50 values, i.e., by molar concentration of the compounds causing 50% decrease in the oxygen evolution rate relative to the untreated control.

[9] = phosphate buffer pH 7.2, DCPIP acceptor

Row | Compound | MIC [1] | MIC [2] | MIC [3] | MIC [4] | MIC [5] | log k [6] | MIC [7] | pIC50 [8, 9] | pIC50 ([8]; as quoted in the chlorophyll a fluorescence discussion) | MIC MRSA 630 [1] | MIC MRSA 3202 [2] | MIC MRSA 63718 [3] | MIC SA ([4]; MH broth)
1 | O=C(Nc1ccc(F)cc1)c1cc2ccccc2cc1O [4c, N-(4-Fluorophenyl)-3-hydroxynaphthalene-2-carboxamide] | 455 µM (≈ 128 µg/mL) | 228 µM (≈ 64.1 µg/mL) | > 910 µM | > 910 µM | 114 µM (≈ 32.1 µg/mL) | 0.7317 | 910 µM (≈ 256 µg/mL) | – | – | – | – | – | –
2 | O=C(Nc1ccccc1F)c1cc2ccccc2cc1O [compound 4a, N-(2-Fluorophenyl)-3-hydroxynaphthalene-2-carboxamide] | 455 µM (≈ 128 µg/mL) | 228 µM (≈ 64.1 µg/mL) | > 910 µM | > 910 µM | 56.9 µM (≈ 16 µg/mL) | 0.7303 | 28.4 µM (≈ 7.99 µg/mL) | – | – | – | – | – | –
3 | NNC(=O)c1ccncc1 [INH, isoniazid, reference compound] | – | – | – | – | – | – | 467 µM (≈ 64 µg/mL) | – | – | – | – | – | –
4 | O=C(Nc1cccc(C(F)(F)F)c1)c1cc2ccccc2cc1O [7b, 3-Hydroxy-N-(3-trifluoromethylphenyl)naphthalene-2-carboxamide] | 374 µM (≈ 124 µg/mL) | 187 µM (≈ 62 µg/mL) | > 748 µM | > 748 µM | 748 µM (≈ 248 µg/mL) | 1.2053 | > 748 µM | – | – | – | – | – | –
5 | Cc1cccc(NC(=O)c2cc3ccccc3cc2O)c1 [3b, 3-Hydroxy-N-(3-methylphenyl)naphthalene-2-carboxamide] | > 923 µM | 462 µM (≈ 128 µg/mL) | > 923 µM | > 923 µM | 57.7 µM (≈ 16 µg/mL) | 0.8831 | 923 µM (≈ 256 µg/mL) | – | – | – | – | – | –
6 | CC1(C)S[C@@H]2[C@H](NC(=O)[C@H](N)c3ccccc3)C(=O)N2[C@H]1C(=O)O [APC, ampicillin, reference compound] | > 45.8 µM | > 45.8 µM | > 45.8 µM | 5.7 µM (≈ 1.99 µg/mL) | – | – | – | – | – | – | – | – | –
7 | CN(C)C(=O)Nc1ccc(Cl)c(Cl)c1 [DCMU, 3-(3,4-dichlorophenyl)-1,1-dimethylurea, reference compound] | – | – | – | – | – | – | – | ~5.72 and 5.72 | – | – | – | – | –
8 | Cc1ccc(NC(=O)c2cc3ccccc3cc2O)cc1 [3c, 3-Hydroxy-N-(4-methylphenyl)naphthalene-2-carboxamide] | 462 µM (≈ 128 µg/mL) | 231 µM (≈ 64.1 µg/mL) | > 923 µM | > 923 µM | 923 µM (≈ 256 µg/mL) | 0.8753 | > 923 µM | – | – | – | – | – | –
9 | COc1cccc(NC(=O)c2cc3ccccc3cc2O)c1 [compound 2b, 3-Hydroxy-N-(3-methoxyphenyl)naphthalene-2-carboxamide] | > 873 µM | > 873 µM | > 873 µM | > 873 µM | 54.6 µM (≈ 16 µg/mL) | 0.6971 | > 873 µM | 4.27 | 4.27 | – | – | – | –
10 | O=C(Nc1ccccc1)c1cc2ccccc2cc1O [compound 1, 3-Hydroxy-N-phenylnaphthalene-2-carboxamide] | > 972 µM | > 972 µM | > 972 µM | > 972 µM | 972 µM (≈ 256 µg/mL) | 0.6310 | 122 µM (≈ 32.1 µg/mL) | – | – | – | – | – | –
11 | O=C(Nc1ccc(Cl)cc1)c1cc2ccccc2cc1O [5c, N-(4-Chlorophenyl)-3-hydroxynaphthalene-2-carboxamide] | > 860 µM | > 860 µM | > 860 µM | > 860 µM | 430 µM (≈ 128 µg/mL) | 1.0687 | > 860 µM | – | – | – | – | – | –
12 | O=C(Nc1cccc(Br)c1)c1cc2ccccc2cc1O [6b, N-(3-Bromophenyl)-3-hydroxynaphthalene-2-carboxamide] | > 748 µM | 187 µM (≈ 64 µg/mL) | > 748 µM | > 748 µM | 748 µM (≈ 256 µg/mL) | 1.1536 | > 748 µM | – | – | – | – | – | –
13 | COc1ccccc1NC(=O)c1cc2ccccc2cc1O [compound 2a, 3-Hydroxy-N-(2-methoxyphenyl)naphthalene-2-carboxamide] | 55 µM (≈ 16.1 µg/mL) | 55 µM (≈ 16.1 µg/mL) | 55 µM (≈ 16.1 µg/mL) | 55 µM (≈ 16.1 µg/mL) | 218 µM (≈ 63.9 µg/mL) | 0.6916 | 873 µM (≈ 256 µg/mL) | 4.23 | – | 55 µM (≈ 16.1 µg/mL) | 55 µM (≈ 16.1 µg/mL) | 55 µM (≈ 16.1 µg/mL) | 55 µM (≈ 16.1 µg/mL)
14 | COc1ccc(NC(=O)c2cc3ccccc3cc2O)cc1 [2c, 3-Hydroxy-N-(4-methoxyphenyl)naphthalene-2-carboxamide] | > 873 µM | > 873 µM | > 873 µM | > 873 µM | 873 µM (≈ 256 µg/mL) | 0.5951 | > 873 µM | – | – | – | – | – | –
15 | O=C(Nc1cccc(Cl)c1)c1cc2ccccc2cc1O [5b, N-(3-Chlorophenyl)-3-hydroxynaphthalene-2-carboxamide] | 430 µM (≈ 128 µg/mL) | 215 µM (≈ 64 µg/mL) | > 860 µM | > 860 µM | 860 µM (≈ 256 µg/mL) | 1.0796 | > 860 µM | – | – | – | – | – | –
16 | O=C(Nc1ccccc1Cl)c1cc2ccccc2cc1O [5a, N-(2-Chlorophenyl)-3-hydroxynaphthalene-2-carboxamide] | > 860 µM | 215 µM (≈ 64 µg/mL) | > 860 µM | > 860 µM | 860 µM (≈ 256 µg/mL) | 0.9509 | 860 µM (≈ 256 µg/mL) | – | – | – | – | – | –
17 | O=C(Nc1cccc(F)c1)c1cc2ccccc2cc1O [4b, N-(3-Fluorophenyl)-3-hydroxynaphthalene-2-carboxamide] | 455 µM (≈ 128 µg/mL) | 228 µM (≈ 64.1 µg/mL) | > 910 µM | > 910 µM | 114 µM (≈ 32.1 µg/mL) | 0.8296 | 114 µM (≈ 32.1 µg/mL) | – | – | – | – | – | –
18 | O=C(Nc1ccc([N+](=O)[O-])cc1)c1cc2ccccc2cc1O [compound 8c, 3-Hydroxy-N-(4-nitrophenyl)naphthalene-2-carboxamide] | > 830 µM | > 830 µM | > 830 µM | > 830 µM | 13 µM (≈ 4.01 µg/mL) | 0.9175 | > 830 µM | 3.73 | – | – | – | – | –
19 | O=C(Nc1ccc(Br)cc1)c1cc2ccccc2cc1O [6c, N-(4-Bromophenyl)-3-hydroxynaphthalene-2-carboxamide] | > 748 µM | 187 µM (≈ 64 µg/mL) | > 748 µM | > 748 µM | 374 µM (≈ 128 µg/mL) | 1.1459 | > 748 µM | – | – | – | – | – | –
20 | O=C(Nc1ccc(C(F)(F)F)cc1)c1cc2ccccc2cc1O [7c, 3-Hydroxy-N-(4-trifluoromethylphenyl)naphthalene-2-carboxamide] | 374 µM (≈ 124 µg/mL) | 187 µM (≈ 62 µg/mL) | > 748 µM | > 748 µM | 187 µM (≈ 62 µg/mL) | 1.2835 | > 748 µM | – | – | – | – | – | –
21 | Cc1ccccc1NC(=O)c1cc2ccccc2cc1O [3a, 3-Hydroxy-N-(2-methylphenyl)naphthalene-2-carboxamide] | > 923 µM | 462 µM (≈ 128 µg/mL) | > 923 µM | > 923 µM | 115 µM (≈ 31.9 µg/mL) | 0.6936 | 462 µM (≈ 128 µg/mL) | – | – | – | – | – | –
